In patent US11767322B2 (BRISTOL-MYERS SQUIBB COMPANY, priority 2020, dated 2023):

System: MLKL phosphorylation in HT29-L23 human colorectal adenocarcinoma cells
Test: MLKL phosphorylation high-content assay
Type: cell-based
Details: HT29-L23 cells; necroptosis induced with TNFα, SMAC mimetic and Z-VAD, 6 h; maximal inhibition defined by Nec1s; read-out: pMLKL IC50

For Cc1ccc(-c2ccn3nc(N)nc3c2)c(F)c1C(=O)NCC(F)(F)C(C)(O)c1ccc(F)cc1 (single isomer, unassigned) [Example 62, 3-(2-amino-[1,2,4]triazolo[1,5-a]pyridin-7-yl)-N-(2,2-difluoro-3-(4-fluorophenyl)-3-hydroxybutyl)-2-fluoro-6-methylbenzamide], which IC50 is on record?
The IC50 was 1.1 nM.

How did the IC50 turn out when Cc1c(C(=O)NCC(F)(F)C(O)c2ccc(Cl)cc2)cc(-c2ccn3nc(N)nc3c2)c(F)c1F (single isomer, unassigned) [Example 105, 5-(2-amino-[1,2,4]triazolo[1,5-a]pyridin-7-yl)-N-(3-(4-chlorophenyl)-2,2-difluoro-3-hydroxypropyl)-3,4-difluoro-2-methylbenzamide] was run?
Its IC50 is 0.5 nM.

With Cc1c(C(=O)NCC(F)(F)C(O)c2ccc(F)cc2)cc(-c2ccn3nc(N)nc3c2)c(F)c1F (single isomer, unassigned) [Example 107, 5-(2-amino-[1,2,4]triazolo[1,5-a]pyridin-7-yl)-N-(2,2-difluoro-3-(4-fluorophenyl)-3-hydroxypropyl)-3,4-difluoro-2-methylbenzamide] as the compound, how does the IC50 read?
Its IC50 is 0.4 nM.

For COc1ccc(-c2ccn3nc(N)nc3c2)c(F)c1C(=O)NCC(F)(F)C(O)c1ccc(F)cc1 (single isomer, unassigned) [Example 124, 3-(2-amino-[1,2,4]triazolo[1,5-a]pyridin-7-yl)-N-(2,2-difluoro-3-(4-fluorophenyl)-3-hydroxypropyl)-2-fluoro-6-methoxybenzamide], which IC50 is on record?
Its IC50 is 1.4 nM.

How did the IC50 turn out when COc1ccc(-c2ccn3nc(N)nc3c2)c(F)c1C(=O)NCC(F)(F)C(O)c1ccc(F)cc1 (single isomer, unassigned) [Example 125, 3-(2-amino-[1,2,4]triazolo[1,5-a]pyridin-7-yl)-N-(2,2-difluoro-3-(4-fluorophenyl)-3-hydroxypropyl)-2-fluoro-6-methoxybenzamide] was run?
Its IC50 is 2.9 nM.

Which IC50 does the source give for [2H]C([2H])([2H])C(O)(c1ccc(F)cc1)C(F)CNC(=O)c1c(C(F)F)ccc(-c2ccn3nc(N)nc3c2)c1F (single isomer, unassigned) [Example 194, 3-(2-amino-[1,2,4]triazolo[1,5-a]pyridin-7-yl)-6-(difluoromethyl)-2-fluoro-N-(2-fluoro-3-(4-fluorophenyl)-3-hydroxybutyl-4,4,4-d3)benzamide] here?
Its IC50 is 8.8 nM.

With [2H]C([2H])([2H])C(O)(c1ccc(F)cc1)C(F)CNC(=O)c1c(C(F)F)ccc(-c2ccn3nc(N)nc3c2)c1F (single isomer, unassigned) [Example 197, 3-(2-amino-[1,2,4]triazolo[1,5-a]pyridin-7-yl)-6-(difluoromethyl)-2-fluoro-N-(2-fluoro-3-(4-fluorophenyl)-3-hydroxybutyl-4,4,4-d3)benzamide] as the compound, how does the IC50 read?
The IC50 was 0.3 nM.

For [2H]C([2H])([2H])C(O)(c1ccc(F)cc1)C(F)CNC(=O)c1c(Cl)ccc(-c2ccn3nc(N)nc3c2)c1F (single isomer, unassigned) [Example 237, 3-(2-amino-[1,2,4]triazolo[1,5-a]pyridin-7-yl)-6-chloro-2-fluoro-N-(2-fluoro-3-(4-fluorophenyl)-3-hydroxybutyl-4,4,4-d3)benzamide], which IC50 is on record?
The IC50 was 86 nM.

How did the IC50 turn out when [2H]C([2H])([2H])C(O)(c1ccc(F)cc1)C(F)CNC(=O)c1c(Cl)ccc(-c2ccn3nc(N)nc3c2)c1F (single isomer, unassigned) [Example 240, 3-(2-amino-[1,2,4]triazolo[1,5-a]pyridin-7-yl)-6-chloro-2-fluoro-N-(2-fluoro-3-(4-fluorophenyl)-3-hydroxybutyl-4,4,4-d3)benzamide] was run?
Its IC50 is 3.1 nM.

With Nc1nc2cc(-c3ccc(Cl)c(C(=O)NCC(F)(F)C(O)c4ccc(Cl)c(Cl)n4)c3F)ccn2n1 (single isomer, unassigned) [Example 271] as the compound, how does the IC50 read?
Its IC50 is 1.8 nM.

Which IC50 does the source give for CCC(O)(c1ccc(F)cc1)C(F)(F)CNC(=O)c1c(Cl)ccc(-c2ccn3nc(N)nc3c2)c1F (single isomer, unassigned) [Example 313, 3-(2-amino-[1,2,4]triazolo[1,5-a]pyridin-7-yl)-6-chloro-N-(2,2-difluoro-3-(4-fluorophenyl)-3-hydroxypentyl)-2-fluorobenzamide] here?
The IC50 was 3.8 nM.

How did the IC50 turn out when CCC(O)(c1ccc(F)cc1)C(F)(F)CNC(=O)c1c(Cl)ccc(-c2ccn3nc(N)nc3c2)c1F (single isomer, unassigned) [Example 314, 3-(2-amino-[1,2,4]triazolo[1,5-a]pyridin-7-yl)-6-chloro-N-(2,2-difluoro-3-(4-fluorophenyl)-3-hydroxypentyl)-2-fluorobenzamide] was run?
The IC50 was 17 nM.

Same assay, conditions: Homo sapiens, 6 h, HT29-L23 cells; necroptosis induced with TNFα, SMAC mimetic and Z-VAD, 6 h; maximal inhibition defined by Nec1s; read-out: pMLKL IC50

With Nc1nc2cc(-c3cc(C(=O)NCC(F)(F)C(O)c4ccc(F)cc4)c(Cl)cc3Cl)ccn2n1 (racemic) [Example 127] as the compound, how does the IC50 read?
Its IC50 is 9.7 nM.

Cc1ccc(-c2ccn3nc(N)nc3c2)c(F)c1C(=O)NCC(F)(F)C(C)(O)c1ccc(F)cc1 (single isomer, unassigned) [Example 61, 3-(2-amino-[1,2,4]triazolo[1,5-a]pyridin-7-yl)-N-(2,2-difluoro-3-(4-fluorophenyl)-3-hydroxybutyl)-2-fluoro-6-methylbenzamide] was tested. Which IC50 did it give?
Its IC50 is 0.8 nM.

Cc1c(C(=O)NCC(F)(F)C(O)c2ccc(Cl)cc2)cc(-c2ccn3nc(N)nc3c2)c(F)c1F (single isomer, unassigned) [Example 104, 5-(2-amino-[1,2,4]triazolo[1,5-a]pyridin-7-yl)-N-(3-(4-chlorophenyl)-2,2-difluoro-3-hydroxypropyl)-3,4-difluoro-2-methylbenzamide] was tested. Which IC50 did it give?
Its IC50 is 0.3 nM.

With Cc1c(C(=O)NCC(F)(F)C(O)c2ccc(F)cc2)cc(-c2ccn3nc(N)nc3c2)c(F)c1F (single isomer, unassigned) [Example 106, 5-(2-amino-[1,2,4]triazolo[1,5-a]pyridin-7-yl)-N-(2,2-difluoro-3-(4-fluorophenyl)-3-hydroxypropyl)-3,4-difluoro-2-methylbenzamide] as the compound, how does the IC50 read?
The IC50 was 0.5 nM.

With CCc1ccc(-c2ccn3nc(N)nc3c2)c(F)c1C(=O)NCC(F)(F)C(O)c1ccc(F)cc1 (single isomer, unassigned) [Example 120, 3-(2-amino-[1,2,4]triazolo[1,5-a]pyridin-7-yl)-N-(2,2-difluoro-3-(4-fluorophenyl)-3-hydroxypropyl)-6-ethyl-2-fluorobenzamide] as the compound, how does the IC50 read?
The IC50 was 1.4 nM.

Cc1c(F)cc(-c2ccn3nc(N)nc3c2)cc1C(=O)NCCC(C)(O)c1ccccc1 (stereo not shown) [Example 96, 5-(2-amino-[1,2,4]triazolo[1,5-a]pyridin-7-yl)-3-fluoro-N-(3-hydroxy-3-phenylbutyl)-2-methylbenzamide] was tested. Which IC50 did it give?
Its IC50 is 39 nM.

For CCc1ccc(-c2ccn3nc(N)nc3c2)c(F)c1C(=O)NCC(F)(F)C(O)c1ccc(F)cc1 (stereo not shown) [Example 121, 3-(2-amino-[1,2,4]triazolo[1,5-a]pyridin-7-yl)-N-(2,2-difluoro-3-(4-fluorophenyl)-3-hydroxypropyl)-6-ethyl-2-fluorobenzamide], which IC50 is on record?
Its IC50 is 1 nM.

Same assay, conditions: Homo sapiens, 6 h, read-out: pMLKL IC50, HT29-L23 cells; necroptosis induced with TNFα, SMAC mimetic and Z-VAD, 6 h; maximal inhibition defined by Nec1s

For COc1ccc(C(O)C(F)(F)CNC(=O)c2c(Cl)ccc(-c3ccn4nc(N)nc4c3)c2F)cc1 (single isomer, unassigned) [Example 184, 3-(2-amino-[1,2,4]triazolo[1,5-a]pyridin-7-yl)-6-chloro-N-(2,2-difluoro-3-hydroxy-3-(4-methoxyphenyl)propyl)-2-fluorobenzamide], which IC50 is on record?
The IC50 was 0.4 nM.

Same assay, conditions: Homo sapiens, Table 23, representative compounds from WO2018/148626; read-out: pMLKL IC50

How did the IC50 turn out when COc1ncc(-c2ccn3nc(N)nc3c2)cc1C(=O)NC(C)CCc1ccccc1 (stereo not shown) [Example 101] was run?
Its IC50 is 82 nM.

CC(CCNC(=O)c1cc(-c2ccn3nc(N)nc3c2)cnc1Cl)c1ccccc1 (stereo not shown) [Example 170] was tested. Which IC50 did it give?
Its IC50 is 48 nM.
